# Source: US20250281462A1, “THERAPEUTICALLY EFFECTIVE ORAL ADMINISTRATION OF A 2 ARYLBENZIMIDAZOLE” (Tranquis Therapeutics, Inc., priority 2021, published 2025)
# “Also recorded” adds a separate entry of the source.
# Experiments:
# [1] = tested on: TNFα; assay: LPS-stimulated TNFα secretion from human PBMCs (ELISA); format: cell-based; conditions: LPS 1 ng/mL, 24 h
# Protocol: The principal metabolites from liver metabolism of TQS-168 following oral administration have been described. See Sun et al., Rapid Commun. Mass Spectrom. 32:480-488 (2018), incorporated herein by reference. We synthesized the phase 1 metabolites from liver metabolism of TQS-168 illustrated in FIG. 20 and tested them for the ability to inhibit LPS-stimulated secretion of pro-inflammatory cytokines in vitro.
# Briefly, 20,000 human PBMC were aliquoted into each well. LPS was added at 1 ng/mL and the cells incubated for 24 h in the presence of LPS and TQS-168 or one of its metabolites. Readouts were human IL-6 ELISA and human TNFα ELISA. For assay, supernatants were diluted in culture medium. The supernatant dilution for the IL-6 ELISA was 1:8, and the 1:2 for the human TNFα ELISA.
# [2] = Phase 1 multiple dose trial, plasma pharmacokinetics (Part 2); conditions: for Tmax: median
# [3] = Plasma concentrations after single intravenous dose in mice; format: in vivo; conditions: male, CD-1, mouse, 0.5 mg/kg intravenous, read-out: Terminal elimination half life (converted)
# Protocol: Three male 7-9 week old male CD-1 mice from Lingchang were treated intravenously with 0.5 mg/kg of TQS-168. TQS-168 was prepared in solution of 31.6% DMAC+36.8% Ethanol+31.6% Propylene glycol. Blood was collected at 0.5, 3, 10, 30, 60, 120, 240, 480 and 720 minutes after a single dose of TQS-168 and then processed. Blood samples were collected via saphenous vein puncture into a K2EDTA tube, centrifuged at 4° C. at 4600 rpm for 5 minutes and plasma collected and stored at less than −20° C. prior to being analyzed by LC-MS for TQS-168 concentrations. Data are presented as concentration and mean concentration of TQS-168 per volume of plasma (ng/mL), as shown in FIG. 10 (individual mice) and FIG. 11 (average), respectively.
# [4] = tested on: murine models of neurodegenerative diseases; conditions: mice, oral 25-50 mg/kg; Parkinson's disease, Alzheimer's disease, ALS models; cited from earlier work
# [5] = tested on: Ppargc1α (PGC-1α); conditions: Zhang et al., Diabetes 62:1297-1307 (2013); cited from earlier work
# [6] = human plasma, Regimen I: 120 mg TQS-168 SDD QD 7 days, fasted, geometric mean
# [7] = human plasma, Regimen J 90 mg SDD fed, Day 1
# [8] = human plasma, Regimen J 90 mg SDD fed, Day 7
# [9] = human plasma, Regimen J: 90 mg TQS-168 SDD QD 7 days, fed, geometric mean
# [10] = human plasma, Regimen K: 300 mg TQS-168 SDD QD 7 days, fed, geometric mean
structure (smiles),measurement,setting,value
CC(C)(C)c1ccc(-c2nc3cc(O)ccc3[nH]2)cc1 [TQS-621],inhibition of LPS-stimulated TNFα secretion,[1],potently inhibits; also recorded: potent inhibitor
"CC(C)(C)c1ccc(-c2nc3ccccc3[nH]2)cc1 [TQS-168, 2-(4-tert-butylphenyl)-1H-benzimidazole]",T1/2,"[2]; Regimen J, 90 mg TQS-168 SDD QD, fed, Day 7, geometric mean",4.46 h
same,T1/2,"[2]; Regimen K, 300 mg TQS-168 SDD QD, fed, Day 7, geometric mean",5.67 h
same,AUC(0-tau),"[2]; human plasma, Regimen I: 120 mg TQS-168 SDD QD 7 days, fasted, Day 1, geometric mean",438 ng·h/mL
same,AUC(0-tau),"[2]; human plasma, Regimen I: 120 mg TQS-168 SDD QD 7 days, fasted, Day 7, geometric mean",692 ng·h/mL
same,accumulation ratio based on AUC(0-tau),[2]; [6],1.58
same,accumulation ratio based on Cmax,[2]; [6],1.59
same,maximum individual AUC(0-tau) as share of the AUC(0-24) exposure limit,[2]; [7],10.9%
same,maximum individual Cmax as share of the Cmax exposure limit,[2]; [7],21.6%
same,maximum individual AUC(0-tau) as share of the AUC(0-24) exposure limit,[2]; [8],19.5%
same,maximum individual Cmax as share of the Cmax exposure limit,[2]; [8],30.9%
same,AUC(0-tau),"[2]; human plasma, Regimen J: 90 mg TQS-168 SDD QD 7 days, fed, Day 1, geometric mean",223 ng·h/mL
same,AUC(0-tau),"[2]; human plasma, Regimen J: 90 mg TQS-168 SDD QD 7 days, fed, Day 7, geometric mean",227 ng·h/mL
same,accumulation ratio based on AUC(0-tau),[2]; [9],1.24
same,accumulation ratio based on Cmax,[2]; [9],1.03
same,AUC(0-tau),"[2]; human plasma, Regimen K: 300 mg TQS-168 SDD QD 7 days, fed, Day 1, geometric mean",1210 ng·h/mL
same,AUC(0-tau),"[2]; human plasma, Regimen K: 300 mg TQS-168 SDD QD 7 days, fed, Day 7, geometric mean",2010 ng·h/mL
same,accumulation ratio based on AUC(0-tau),[2]; [10],1.66
same,accumulation ratio based on Cmax,[2]; [10],1.74
same,AUC,"[2]; male, human, in vivo, 90 mg, AUC(0-tau), Regimen J, 90 mg TQS-168 SDD QD, fed, Day 1, tau = 24 h, geometric mean",223 ng·h/mL
same,AUC,"[2]; male, human, in vivo, 90 mg, AUC(0-tau), Regimen J, 90 mg TQS-168 SDD QD, fed, Day 7, tau = 24 h, geometric mean",227 ng·h/mL
same,AUC,"[2]; male, human, in vivo, 90 mg, AUC(0-tau), human plasma, Regimen J: 90 mg TQS-168 SDD QD 7 days, fed, Day 1, geometric mean",223 ng·h/mL
same,AUC,"[2]; male, human, in vivo, 90 mg, AUC(0-tau), human plasma, Regimen J: 90 mg TQS-168 SDD QD 7 days, fed, Day 7, geometric mean",227 ng·h/mL
same,Cmax,"[2]; male, human, in vivo, 90 mg, Cmax, Regimen J, 90 mg TQS-168 SDD QD, fed, Day 1, plasma, geometric mean",47.4 ng/mL
same,Cmax,"[2]; male, human, in vivo, 90 mg, Cmax, Regimen J, 90 mg TQS-168 SDD QD, fed, Day 7, plasma, geometric mean",48.8 ng/mL
same,Cmax,"[2]; male, human, in vivo, 90 mg, Cmax, human plasma, Regimen J: 90 mg TQS-168 SDD QD 7 days, fed, Day 1",190 nM
same,Cmax,"[2]; male, human, in vivo, 90 mg, Cmax, human plasma, Regimen J: 90 mg TQS-168 SDD QD 7 days, fed, Day 1, geometric mean",47.4 ng/mL
same,Cmax,"[2]; male, human, in vivo, 90 mg, Cmax, human plasma, Regimen J: 90 mg TQS-168 SDD QD 7 days, fed, Day 7",190 nM
same,Cmax,"[2]; male, human, in vivo, 90 mg, Cmax, human plasma, Regimen J: 90 mg TQS-168 SDD QD 7 days, fed, Day 7, geometric mean",48.8 ng/mL
same,Tmax,"[2]; male, human, in vivo, 90 mg, Tmax (median), Regimen J, 90 mg TQS-168 SDD QD, fed, Day 7, plasma",3 h
same,Tmax,"[2]; male, human, in vivo, 90 mg, Tmax, human plasma, Regimen J: 90 mg TQS-168 SDD QD 7 days, fed, Day 1",3 h
same,Tmax,"[2]; male, human, in vivo, 90 mg, Tmax, human plasma, Regimen J: 90 mg TQS-168 SDD QD 7 days, fed, Day 7",3 h
same,AUC,"[2]; male, human, in vivo, 90 mg, maximum individual AUC(0-tau), human plasma, Regimen J 90 mg SDD fed, Day 1",299 ng·h/mL
same,AUC,"[2]; male, human, in vivo, 90 mg, maximum individual AUC(0-tau), human plasma, Regimen J 90 mg SDD fed, Day 7",535 ng·h/mL
same,Cmax,"[2]; male, human, in vivo, 90 mg, maximum individual Cmax, human plasma, Regimen J 90 mg SDD fed, Day 1",65.8 ng/mL
same,Cmax,"[2]; male, human, in vivo, 90 mg, maximum individual Cmax, human plasma, Regimen J 90 mg SDD fed, Day 7",94.1 ng/mL
same,half-life,"[2]; male, human, in vivo, 120 mg",462 min
same,AUC,"[2]; male, human, in vivo, 120 mg, AUC(0-tau), human plasma, Regimen I: 120 mg TQS-168 SDD QD 7 days, fasted, Day 1, geometric mean",438 ng·h/mL
same,AUC,"[2]; male, human, in vivo, 120 mg, AUC(0-tau), human plasma, Regimen I: 120 mg TQS-168 SDD QD 7 days, fasted, Day 7, geometric mean",692 ng·h/mL
same,Cmax,"[2]; male, human, in vivo, 120 mg, Cmax, human plasma, Regimen I: 120 mg TQS-168 SDD QD 7 days, fasted, Day 1",690 nM
same,Cmax,"[2]; male, human, in vivo, 120 mg, Cmax, human plasma, Regimen I: 120 mg TQS-168 SDD QD 7 days, fasted, Day 1, geometric mean",172 ng/mL
same,Cmax,"[2]; male, human, in vivo, 120 mg, Cmax, human plasma, Regimen I: 120 mg TQS-168 SDD QD 7 days, fasted, Day 7",1090 nM
same,Cmax,"[2]; male, human, in vivo, 120 mg, Cmax, human plasma, Regimen I: 120 mg TQS-168 SDD QD 7 days, fasted, Day 7, geometric mean",273 ng/mL
same,Tmax,"[2]; male, human, in vivo, 120 mg, Tmax, human plasma, Regimen I: 120 mg TQS-168 SDD QD 7 days, fasted, Day 1",1 h
same,Tmax,"[2]; male, human, in vivo, 120 mg, Tmax, human plasma, Regimen I: 120 mg TQS-168 SDD QD 7 days, fasted, Day 7",0.75 h
same,AUC,"[2]; male, human, in vivo, 300 mg, AUC(0-tau), Regimen K, 300 mg TQS-168 SDD QD, fed, Day 1, tau = 24 h, geometric mean",1210 ng·h/mL
same,AUC,"[2]; male, human, in vivo, 300 mg, AUC(0-tau), Regimen K, 300 mg TQS-168 SDD QD, fed, Day 7, tau = 24 h, geometric mean",2010 ng·h/mL
same,AUC,"[2]; male, human, in vivo, 300 mg, AUC(0-tau), human plasma, Regimen K: 300 mg TQS-168 SDD QD 7 days, fed, Day 1, geometric mean",1210 ng·h/mL
same,AUC,"[2]; male, human, in vivo, 300 mg, AUC(0-tau), human plasma, Regimen K: 300 mg TQS-168 SDD QD 7 days, fed, Day 7, geometric mean",2010 ng·h/mL
same,Cmax,"[2]; male, human, in vivo, 300 mg, Cmax, Regimen K, 300 mg TQS-168 SDD QD, fed, Day 1, plasma, geometric mean",229 ng/mL
same,Cmax,"[2]; male, human, in vivo, 300 mg, Cmax, Regimen K, 300 mg TQS-168 SDD QD, fed, Day 7, plasma, geometric mean",400 ng/mL
same,Cmax,"[2]; male, human, in vivo, 300 mg, Cmax, human plasma, Regimen K: 300 mg TQS-168 SDD QD 7 days, fed, Day 1",910 nM
same,Cmax,"[2]; male, human, in vivo, 300 mg, Cmax, human plasma, Regimen K: 300 mg TQS-168 SDD QD 7 days, fed, Day 1, geometric mean",229 ng/mL
same,Cmax,"[2]; male, human, in vivo, 300 mg, Cmax, human plasma, Regimen K: 300 mg TQS-168 SDD QD 7 days, fed, Day 7",1600 nM
same,Cmax,"[2]; male, human, in vivo, 300 mg, Cmax, human plasma, Regimen K: 300 mg TQS-168 SDD QD 7 days, fed, Day 7, geometric mean",400 ng/mL
same,Tmax,"[2]; male, human, in vivo, 300 mg, Tmax (median), Regimen K, 300 mg TQS-168 SDD QD, fed, Day 7, plasma",4 h
same,Tmax,"[2]; male, human, in vivo, 300 mg, Tmax, human plasma, Regimen K: 300 mg TQS-168 SDD QD 7 days, fed, Day 1",2 h
same,Tmax,"[2]; male, human, in vivo, 300 mg, Tmax, human plasma, Regimen K: 300 mg TQS-168 SDD QD 7 days, fed, Day 7",4 h
same,Tmax,"[2]; male, human, in vivo, po, 90 mg, Tmax (median), Regimen J, 90 mg TQS-168 SDD powder for oral suspension QD, fed, Day 1, plasma",3 h
same,Tmax,"[2]; male, human, in vivo, po, 300 mg, Tmax (median), Regimen K, 300 mg TQS-168 SDD powder for oral suspension QD, fed, Day 1, plasma",2 h
same,half-life,[3],8.4 min
same,myeloid-mediated inflammation and disease severity,[4],suppress myeloid-mediated inflammation and reduce disease severity
same,effect on Ppargc1α (PGC-1α) gene expression,[5],activator
